Assay results from US20220017541A1, “INHIBITORS OF ARGINASE” (Black Belt Tx Ltd, priority 2018, published 2022).

Experiments:
recombinant human ARG2 = molecular target: T1, recombinant human ARG2 (Homo sapiens, UniProt P78540); test: Arginase enzymatic assay in vitro, recombinant human ARG2 (colorimetric urea detection); format: biochemical; conditions: recombinant human arginase 2; read-out: IC50 Inh rhARG2
T1 construct: purchased BPS Bioscience 71659
T1 sequence (P78540 23-354): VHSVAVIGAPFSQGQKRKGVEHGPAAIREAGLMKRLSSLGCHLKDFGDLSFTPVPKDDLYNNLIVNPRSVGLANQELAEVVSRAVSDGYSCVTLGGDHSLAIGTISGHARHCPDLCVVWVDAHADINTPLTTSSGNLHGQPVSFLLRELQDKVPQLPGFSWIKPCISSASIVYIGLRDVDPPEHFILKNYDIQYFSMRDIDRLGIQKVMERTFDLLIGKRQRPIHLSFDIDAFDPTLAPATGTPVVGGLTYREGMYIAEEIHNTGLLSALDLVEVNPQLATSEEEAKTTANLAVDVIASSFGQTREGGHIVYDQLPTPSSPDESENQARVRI
Excerpt: (§1) Arginase catalyzes the hydrolysis of L-arginine into L-ornithine and urea. Urea amount produced by this reaction can be detected using a colorimetric assay and used as an indirect measurement of arginase activity. An adapted protocol from (Baggio, R., et al., J Pharmacol Exp Ther, 1999. 290(3): p. 1409-16) was used for the testing the ability of exemplary compounds of the invention to inhibit arginase enzymes from a variety of sources including recombinant human ARG1 and 2, lysates of human red blood cells (RBC) and intact murine macrophages, as described below.
(§2) Compounds of the invention were prepared from powder as 10 mM stock solutions in DMSO and stored in presence of N2 neutral atmosphere at −80° C. For IC50 determination and just before the assay, exemplary compounds were successively diluted to get the following concentrations: 210, 70, 21, 7, 2.1, 0.7, 0.21, 0.07, 0.021, 0.007, 0.0021 and 0.0007 μM (i.e., final concentrations in the wells of 30, 10, 3, 1, 0.3, 0.1, 0.03, 0.01, 0.003, 0.001, 0.0003, 0.0001 μM).
(§3) Assays were run in clear flat bottom 96-well plates (Nunclon, Cat. No. #167008) adding in each well the following solutions in this order: (1) 10 μl of Tris-HCl solution supplemented with 0.1% bovine serum albumin (BSA) containing 1.563 μg/ml recombinant human ARG1 (R&D System, Cat. No. #5868-AR-010), (2) 30 μl of Tris-HCl buffer containing 10 mM MnCl2 and (3) 10 μL of a pre-dilution of each test article or DMSO (vehicle). Compounds were allowed to interact with the enzyme-cofactor complex pre-incubating the plate at 37° C. for 30 min. To start the reaction, 20 μl of 50 mM L-arginine (Sigma Aldrich Cat. #A5006-100G) were added to each well in exception of the blank reaction (see below). All reactions were allowed to happen for 1 h at 37° C. To detect the urea production, reactions were stopped by adding 200 μl of a mixture of reagent A (4 mM o-phthalaldehyde in 50 mM Boric Acid, 1 M Sulfuric Acid, 0.03% Brij-35 (w/v)) and reagent B (4 mM N-(1-naphthyl)ethylenediamine in 50 mM Boric Acid, 1 M Sulfuric Acid, 0.03% Brij-35 (w/v)) in equal proportion. Color product was developed for 1 h at room temperature (RT) protected from light and then absorbance at 520 nm was measured using a Multifunction Microplate Reader (Synergy 4, Bioteck). Blank reactions were carried out by adding the L-arginine substrate only after the addition of mixture A-B. All reactions were carried out in duplicates.
(§4) The inhibition of urea production was calculated subtracting the absorbance from the blank reaction (zero enzymatic urea production) to the absorbance from all reactions and it was expressed as the percentage of the absorbance from the reaction containing the test article with respect to the absorbance from vehicle reaction (maximum of urea production).
For testing inhibitory activity over recombinant human arginase II, 10 μl of Tris-HCl solution supplemented with 0.1% BSA containing 1.5 μg/ml recombinant human ARG2 (BPS Bioscience, Cat. No. #71659) was used instead of ARG1.

[1] = molecular target: T2, arginase activity in intact BMM-M2 cells (Mus musculus, UniProt Q61176); test: Cell-based arginase assay: urea production by cultured BMM-M2 cells; conditions: 10 μM test compound, 24 h; for inhibition at 10 µM: read-out: Inh. urea production @10 μM (%)
T2 construct: endogenous in cells; host or cells: bone-marrow derived macrophages from male C57BL/6 mice, polarised to M2 with IL-4
T2 sequence (Q61176 1-323): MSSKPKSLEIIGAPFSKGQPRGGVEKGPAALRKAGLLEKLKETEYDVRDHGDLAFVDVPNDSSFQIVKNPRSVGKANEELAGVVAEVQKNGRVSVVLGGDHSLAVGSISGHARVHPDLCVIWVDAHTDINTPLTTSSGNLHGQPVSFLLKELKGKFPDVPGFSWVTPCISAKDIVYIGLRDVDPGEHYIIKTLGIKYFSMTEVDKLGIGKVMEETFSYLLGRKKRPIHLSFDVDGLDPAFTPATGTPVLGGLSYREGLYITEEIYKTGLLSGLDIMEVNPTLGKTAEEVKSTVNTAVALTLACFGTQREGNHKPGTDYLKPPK
Description: Murine bone-marrow derived macrophages (BMM) represent a convenient in vitro model that enables differentiation of these cells towards M1 or M2 macrophages. Briefly, male C57BL/6 mice 7-8 weeks old were euthanized by carbon dioxide asphyxiation. Femur and tibiae bones were removed under aseptic conditions and collected in a plate containing sterile ice-cold PBS 1×. After sterilization of bones in 70% ethanol during 1 min, bones were placed into a clean Petri dish containing fresh sterile ice-cold PBS 1×. The ends of each bone were cut and the marrow cavity was flushed using forceps and syringes filled with pre-warmed complete α-MEM growing medium (α-MEM without red phenol (Life Technologies, Cat. No. #41061-029) supplemented with 10% FBS, penicillin and streptomycin). Bone marrow (BM) cells were harvested in a 15 ml clean tube and centrifuged at 400 g for 8 min at RT. Supernatant was discarded and BM pellet was re-suspended in 5 ml Ammonium-Chloride-Potassium (ACK) buffer for 5 minutes at RT to lysis RBC. BM cell suspension was centrifuged at 400 g for 8 min at RT. Supernatant was discarded and BM cell pellet was re-suspended in complete α-MEM growing medium and passed through a 70 μm cell restrainer to eliminate solid contaminates and cellular aggregates. BM cells were seeded in 8 ml of complete α-MEM growing medium supplemented with 100 ng/ml recombinant mouse M-CSF (R&D Systems, Cat. No. #416-ML-050) in 100-mm dishes. BM cells were cultured overnight to get rid of contaminating stromal cells in a humidified incubator with 5% CO2 at 37° C. At the following day, non-adherent cells were collected in a clean 15-ml tube and centrifuged at 400 g for 8 min at RT. Cell pellet was re-suspended in complete α-MEM growing medium and counted using a hemocytometer Neubauer's chamber. Hematopoietic precursor cells were differentiated into BMM in presence of complete α-MEM growing medium supplemented 50 ng/ml M-CSF for 3 days. Finally to polarize BMM towards M2 phenotype, cells were incubated in presence 20 ng/ml of recombinant mouse IL-4 (R&D Systems, Cat. No. #404-ML-010) added to fresh complete α-MEM growing medium supplemented 50 ng/ml M-CSF for 24 h.
At the day of the experiment, BMM-M2 were treated for 24 h with vehicle (DMSO) or compounds of the invention at 1 and 10 μM prepared in fresh complete α-MEM growing medium supplemented 50 ng/ml M-CSF, 20 ng/ml IL-4 and 10 mM L-arginine (Cat. No. #A5006, Sigma Aldrich). At the next day, 70 μl aliquots of each treated culture media (supernatants) were transferred into a clear 96-well plate. Measurements of urea produced by BMM-M2 were performed using the adapted protocol detailed in Example B1. Wells without BMM-M2 containing only treatment media (vehicle) were used to determine the zero cell-derived urea production (blank). All treatments were carried out in triplicates.
The inhibition of urea production was calculated subtracting the absorbance from the blank to the absorbance from all treatments and it was expressed as the percentage of the absorbance from the reaction containing the test article treatment with respect to the absorbance from vehicle treatment (maximum of urea production).

recombinant human ARG1 = molecular target: T3, recombinant human ARG1 (Homo sapiens, UniProt P05089); test: Arginase enzymatic assay in vitro, recombinant human ARG1 (colorimetric urea detection); format: biochemical; conditions: recombinant human arginase 1; read-out: IC50 Inh rhARG1
T3 construct: purchased R&D System 5868-AR-010
T3 sequence (P05089 1-322): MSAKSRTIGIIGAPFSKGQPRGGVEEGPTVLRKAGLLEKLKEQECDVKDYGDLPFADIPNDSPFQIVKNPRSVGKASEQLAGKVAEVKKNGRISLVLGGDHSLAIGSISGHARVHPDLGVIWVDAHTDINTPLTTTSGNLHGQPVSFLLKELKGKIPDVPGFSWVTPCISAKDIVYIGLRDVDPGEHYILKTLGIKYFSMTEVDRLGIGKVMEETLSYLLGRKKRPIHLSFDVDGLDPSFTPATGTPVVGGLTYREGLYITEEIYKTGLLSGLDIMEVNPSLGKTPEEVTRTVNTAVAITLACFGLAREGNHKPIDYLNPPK
Excerpt: as §1, §2, §3, §4

Structure (SMILES) | IC50 (recombinant human ARG2) | IC50 (recombinant human ARG1) | inhibition at 10 µM [1] | Inh. urea production @10 μM (%) [1]
CCCC(c1ccccc1)N1CCC(C(N)(CCCCB(O)O)C(=O)O)CC1 (single isomer, unassigned) [Compound 90, 2-amino-6-borono-2-[1-(1-phenylbutyl)-4-piperidyl]hexanoic acid] | 500 to 5000 nM | 500 to 5000 nM |  | 
NC(CCCCB(O)O)(C(=O)O)C1CCN(C2Cc3ccccc3C2)CC1 (stereo not shown) [Compound 23, 2-amino-6-borono-2-(1-(2,3-dihydro-1H-inden-2-yl)piperidin-4-yl)hexanoic acid] | > 5000 nM | > 5000 nM |  | 
NC(CCCCB(O)O)(C(=O)O)C1CCN(C2Cc3ccccc3C2)CC1 (single isomer, unassigned) [Compound 24, 2-amino-6-borono-2-(1-(2,3-dihydro-1H-inden-2-yl)piperidin-4-yl)hexanoic acid] | 500 to 5000 nM | 500 to 5000 nM |  | ++ (25% < % inhibition < 15% at 10 μM test compound)
NC(CCCCB(O)O)(C(=O)O)C1CCN(C2CCc3cc(Cl)ccc32)C1 (stereo not shown) [Compound 82, 2-amino-6-borono-2-[1-(5-chloroindan-1-yl)pyrrolidin-3-yl]hexanoic acid] | 500 to 5000 nM | < 500 nM | > 25% | 
NC(CCCCB(O)O)(C(=O)O)C1CCN(C2Cc3ccccc3C2)CC1 (single isomer, unassigned) [Compound 25, 2-amino-6-borono-2-(1-(2,3-dihydro-1H-inden-2-yl)piperidin-4-yl)hexanoic acid] | > 5000 nM | > 5000 nM |  | 

Continued, in another order:

IC50 (recombinant human ARG2) | IC50 (recombinant human ARG1) | inhibition at 10 µM [1] | Structure (SMILES) | Inh. urea production @10 μM (%) [1]
500 to 5000 nM | < 500 nM |  | NC(CCCCB(O)O)(C(=O)O)C1CCN(C2CCCc3c(Br)cccc32)CC1 (single isomer, unassigned) [Compound 86, 2-amino-6-borono-2-(1-(5-bromo-1,2,3,4-tetrahydronaphthalen-1-yl)piperidin-4-yl)hexanoic acid] | ++ (25% < % inhibition < 15% at 10 μM test compound)
< 500 nM | < 500 nM |  | NC(CCCCB(O)O)(C(=O)O)C1CCN(C2CCCc3ccccc32)CC1 (single isomer, unassigned) [Compound 8, 2-amino-6-borono-2-(1-(1,2,3,4-tetrahydronaphthalen-1-yl)piperidin-4-yl)hexanoic acid] | 
< 500 nM | < 500 nM | < 15% | NC(CCCCB(O)O)(C(=O)O)C1CCN(C2CCc3ccc(C(F)(F)F)cc32)CC1 (single isomer, unassigned) [Compound 35, 2-amino-6-borono-2-[1-[6-(trifluoromethyl)indan-1-yl]-4-piperidyl]hexanoic acid] | 
< 500 nM | < 500 nM | > 25% | NC(CCCCB(O)O)(C(=O)O)C1CCN(C2CCc3ccc(F)cc32)CC1 (single isomer, unassigned) [Compound 88, 2-amino-6-borono-2-(1-(6-fluoro-2,3-dihydro-1H-inden-1-yl)piperidin-4-yl)hexanoic acid] | 
500 to 5000 nM | < 500 nM |  | NC(CCCCB(O)O)(C(=O)O)C1CCN(C2CCCc3ccccc32)CC1 (single isomer, unassigned) [Compound 7, 2-amino-6-borono-2-(1-(1,2,3,4-tetrahydronaphthalen-1-yl)piperidin-4-yl)hexanoic acid] | 
500 to 5000 nM | < 500 nM | > 25% | CC(c1c(Cl)cccc1Cl)N1CCC(C(N)(CCCCB(O)O)C(=O)O)CC1 (single isomer, unassigned) [Compound 91, 2-amino-6-borono-2-(1-(1-(2,6-dichlorophenyl)ethyl)piperidin-4-yl)hexanoic acid] | 
< 500 nM | < 500 nM | > 25% | NC(CCCCB(O)O)(C(=O)O)C1CCN(C2CCCc3cc(-c4ccccc4)ccc32)CC1 (single isomer, unassigned) [Compound 87, 2-amino-6-borono-2-(1-(6-phenyl-1,2,3,4-tetrahydronaphthalen-1-yl)piperidin-4-yl)hexanoic acid] | 
